The results in this text go back to patent US20220054398A1, “USE OF RUBUS FRUTICOSUS EXTRACT FOR MANUFACTURING A SKINCARE COMPOSITION” (TCI CO., LTD., priority 2020, published 2022).

For this test, the system named is Mouse melanoma cell B16F10. Description: Melanin production after blue light exposure, OD450. The following applies: B16F10 cells, 0.25 mg/mL 24 hours, blue light 3 hours, then 48 hours. In kind it is cell-based. As to the method: The changes in melanin content of melanoma cell line B16F10 after being treated with Rubus fruticosus extract are determined by an ELISA reader (enzyme-linked immunosorbent assay reader). Materials and Instruments: • 1. Cell line: Mouse melanoma cell B16F10, purchased from American Type Culture Collection (ATCC®, No. 6475), hereinafter referred to as B16F10 cells. • 2. Medium: Dulbecco's modified […] (DMEM, purchased from Gibco, Cat. 12100-038) is supplemented with additional ingredients to contain 1 vol % antibiotic solution (Antibiotic Antimycotic Solution, purchased from Gibco, 15240-062) and 10 vol % FBS (fetal bovine Serum, purchased from Gibco, 10437-028). Gibco, 15240-062). • 3. Phosphate Buffer Solution (PBS solution): purchased from Gibco, Product No. […]. • 4. Prepare a solution of 1N NaOH (Sigma, Product No. 221465) in secondary distilled water. • 5. ELISA reader (purchased from BioTek, product number FLx 800). • 6. […] Transfer 100 μL of the sample to be tested into a 96-well plate and measure the absorbance value of the cell solution at 450 nm using an ELISA reader. The relative melanin expressions of the experimental and control groups are calculated according to the following formula: Relative melanin expression (%)=(OD 450 value of each group/OD450 value of the control group)×100%.

Take `O=c1cc(CO)occ1O` [kojic acid, Kojic acid]: the “melanin production compared with the control group” value is on record as 67.42%.
